This is an account of results in US9623063B2, “Extracts from Ajuga reptans cell lines, their preparation and use” (I.R.B. ISTITUTO DI RICERCHE BIOTECNOLOGICHE S.r.l., priority 2005, dated 2017).

One assay has as its system 3T3 fibroblasts. Description: BSO-induced oxidative death of 3T3 fibroblasts (MTT). To be noted: 1 mM; BSO 200 μM, 24 hours. The assay is classed as cell-based, BALB/c mouse.
The next assay concerns A549 cells (ATCC-CCL185). The experiment in a line: BSO-induced oxidative stress, ROS by DCF fluorimetry in A549 cells. To be noted: with BSO, control without BSO = 100. The assay is classed as cell-based, human. On the procedure:
10×10^5 A549 cells (ATCC-CCL185) have been seeded into wells with 3 ml of DMEM/F12K HAM medium (Sigma-Aldrich) with 10% FCS and incubated at 37° C. in a 5% CO2, water vapour saturated atmosphere. After 24 hours the culture medium is replaced by medium supplemented with BSO, which is left in contact with the cells for 20 hours. The medium is once again replaced with medium containing BSO in the presence or absence of the test compound. After 4 hours, quantitative measurement of the ROSs (hydroxyl radicals) is performed by washing the cells with phosphate buffer and then incubating them with 30 μM DCF-DA in buffer solution. At the end of a 15 minute incubation, excess DCF-DA is removed from the cells by washing, prior to measuring the fluorescence emitted.
Antioxidant activity measurements are performed using a (Hitachi F3010) spectrophotometer with excitation at 488 nm and measuring emission at 525 nm, and values are expressed in pmoles, by extrapolation from the calibration curve constructed using known quantities of DCF, and in relation to total cellular protein. Values are thus expressed in % ages with respect to the ROS content of the cells not subjected to treatment with BSO (control) to which are assigned a value of 100.
The Extracts 1 and 2, Teupolioside and Ascorbic Acid were solubilized in phosphate buffer 10 mM at pH 7.4, whereas trolox was solubilized in 0.1% of dimethylsulphoxide and culture medium.

A short description of assay [1]: Peroxynitrite scavenging (SIN-1, PTIO spin trap, ESR). The assay is classed as biochemical. To be noted: means of 6 independent assays. From the text: (§1) The superoxide anion has been measured by a chemiluminescent assay based on the hypoxanthine (HPX)/xanthine oxidase (XOD) reaction using the Lumimax Superoxide Anion Detection Kit (Stratagene, La Jolla, Calif., USA) and following the manufacturer's instructions. Hydroxyl radical scavenger activity has been measured by means of the Fenton reaction for the production of hydroxyl radicals and chemiluminescent dosage (using a Victor^3 chemiluminometer, Wallac, Finland) with luminol. Peroxynitrite ions have been determined by means of dosage with a spontaneous generator of peroxynitrites (3-morpholinosidnonimine hydrochloride; SIN-1) and a stable reagent for the nitroxyl ions (2-(4-carboxyphenyl)-4,4,5,5-tetramethylimidazoline-1-oxyl-3-oxide potassium salt PTIO spin trap) then dosed by means of electron spin resonance (ESR) using a Nippon Denshi JES-FR30. Lipid peroxidation has been generated using Fe^2+ induced-oxygen reactive species, and detected using thiobarbituric acid in accordance with Buege, J A & Aust, S D: Microsomal lipid peroxidation (Methods Enzymol.
(§2) The results are expressed as the concentration inhibiting 50% of activity (IC50), means of 6 independent assays.

Assay [2] can be described thus: Superoxide anion chemiluminescent assay (hypoxanthine/xanthine oxidase, Lumimax kit). The assay is classed as biochemical. To be noted: means of 6 independent assays.
Description: as §1, §2

Assay [3] can be described thus: Hydroxyl radical scavenger activity (Fenton reaction, luminol chemiluminescence). The assay is classed as biochemical. To be noted: means of 6 independent assays.
Description: as §1, with “Ajuga reptans Extracts 1 and 2, prepared as described in examples 1 and 2, and isoteupolioside have been used to assess in vitro antioxidant action with specific oxygen radical generating systems such as the superoxide anion (O2^−), the hydroxyl radical (HO^−), the peroxynitrite radical (ONOO^−) and the inhibition of lipid peroxidation. The” for “The”
The Extract 1 and the Extract 2 set forth in Table 4 are derived from Ajuga reptans cell cultures comprising the phenylpropanoids at 90% and 54%, respectively. The results are expressed as the concentration inhibiting 50% of activity (IC50), means of 6 independent assays.

Assay [4] relates to tyrosinase. Description: Tyrosinase inhibition, conversion of L-DOPA to DOPAquinone. The conditions noted are these: 100 μg/ml. The assay is classed as biochemical. An excerpt: (§3) The enzyme tyrosinase catalyses the reactions leading to melanin biosynthesis from tyrosine. […] Substances inhibiting tyrosinase activity produce a clearing/bleaching effect on the skin, since they block melanin synthesis. The method used to determine the inhibition of tyrosinase activity in the oxidation reaction of L-tyrosine to L-DOPA is that described in Kim et al. […] Biol. Pharm. […] The method applied for determination of the inhibition of tyrosinase activity in the conversion of L-DOPA to DOPAquinone is that described in Masamoto et al. (Mushroom tyrosinase inhibitory activity of esculetin isolated from seeds of Euphorbia lathyris L. Biosci. Biotechnol. Biochem., 67(3), 631-634, 2003).

Assay [5] deals with tyrosinase. Description: Tyrosinase inhibition, oxidation of L-tyrosine to L-DOPA. The assay is classed as biochemical. To be noted: 250 μg/ml.
Description: as §3

Regarding `O=C1O[C@H]([C@@H](O)CO)C(O)=C1O` [Ascorbic acid, reference compound], in the assay with 3T3 fibroblasts, the “% survived cells” value is on record as 72.3%. The “% ROS in picomoles” value with A549 cells (ATCC-CCL185) (1 mM) stood at 130 ± 10 %.

Turning to `O=C1c2c(O)cccc2C([C@@H]2O[C@H](CO)[C@@H](O)[C@H](O)[C@H]2O)c2cc(CO)cc(O)c21` (stereo partly shown) [Aloin, reference compound], the “Peroxynitrite radical (IC50)” value in assay [1] amounted to 12.3 µg/mL. The “Superoxide radical (IC50)” value in assay [2] is 7.6 µg/mL. The “Hydroxyl radial (IC50)” value in assay [3] stood at 2.9 µg/mL.

In the case of `Oc1cccc(O)c1` [Resorcinol, reference compound], in the assay on tyrosinase [4], the “Test LDOPA-DOPAquinone inhibitory activity (%)” value was found to be 0%. The “Test L-tyrosine-DOPA inhibitory activity (%)” value in the assay on tyrosinase [5] stood at 56.9%.

For `Cc1c(C)c2c(c(C)c1O)CCC(C)(C(=O)O)O2` (stereo not shown) [Trolox], the “% ROS in picomoles” value in the assay with A549 cells (ATCC-CCL185) (20 μM) came out at 125 ± 8 %.

For `O=c1cc(CO)occ1O` [Kojic acid, reference compound], the “Test LDOPA-DOPAquinone inhibitory activity (%)” value with tyrosinase [4] worked out at 35%. The “Test L-tyrosine-DOPA inhibitory activity (%)” value in the assay with tyrosinase [5] worked out at 94.1%.
